Assay results reported in patent publication US20180303874A1, “Compositions and Methods for the Prevention of Microbial Infections” (LANKENAU INSTITUTE FOR MEDICAL RESEARCH, priority 2011, published 2018).

Assays:
[1] = test system: HSV; conditions: co-incubated; cited from earlier work
[2] = test system: Caco-2 cell sheets; test: Transepithelial electrophysiology of Caco-2 cell sheets; type: cell-based, human; conditions: vs control
Description: Cells were seeded at the density of 5×10^5 onto sterile Millipore Millicell polycarbonate (PCF) permeable supports (pore size 0.4 μm with a diameter of 30 mm) on Day 0. Cells were allowed to grow for 21-24 days prior to experiments (Hubatsch et al. (2007) Nat. Protoc., 2:2111-9). Three or four Millicell PCF units (2 ml/unit) were placed in a 100 mm sterile petri dish (15 ml/dish). Cells were fed bilaterally 3 times per week with control medium until at least Day 14 and switched to different zinc-supplemented media (Ctrl, 50 or 100 μM elemental zinc) for another week. […]
On the day of experiment, cells were re-fed in fresh culture medium and allowed to incubate at 37° C. for 2 hr prior to the actual experiment. Transepithelial voltage and transepithelial electrical resistance were measured as previously described (Skrovanek et al. (2007) Am. J. Physiol. Regul. Integr. Comp. Physiol., 293:R1046-55). In brief, using silver/silver chloride electrodes in series with 1M NaCl agar bridges, a 40 microamp externally applied current pulse was delivered across the cell layer and the resultant change in the voltage across the cell layer was measured using calomel electrodes in series with 1M NaCl/agar bridges and a Keithley® 197A auto-ranging digital multimeter. […]

[3] = test system: claudin-7; test: Western blot analysis of tight junctional protein claudin-7 in Caco-2 cells; type: cell-based, human; conditions: 50 or 100 μM zinc, one week, vs control
Description: (§1) Human gastrointestinal epithelial cells were allowed to grow to maximal density and re-fed with culture media at different zinc concentrations for pre-determined time points (0, 3, 6, 24 or 48 hours, or 7 days). Flasks were washed two times each with ice cold saline, then flash-frozen in an ethanol-dry ice bath, and stored at −80° C. until fractionation. At that time, flasks were quick-thawed and 2 ml of 4° C. Buffer A (20 mM Tris-HCl, pH 7.5, 0.25 M sucrose, 10 mM EGTA, 2 mM EDTA) with protease and phosphatase inhibitors (final concentrations: 0.8 μM aprotinin, 20 μM leupeptin, 50 μM bestatin, 1 mM AEBSF, 10 μM pepstatin) (Calbiochem) was added to each, cells were scraped into the buffer, the suspension mechanically disrupted and then sonicated for 60 seconds on ice and transferred to an ultracentrifuge tube. Tubes were centrifuged in a chilled Beckman 50TI rotor at 39,000 rpm for one hour at 4° C. […] The supernatant from this final spin was the “membrane fraction.” Total protein was measured using the BioRad DC™ Protein Assay Kit.
(§2) Samples of these fractions were analyzed by polyacrylamide gel electrophoresis using a Novex XCell SureLock™ Mini-Cell apparatus and a 4-20% gradient Novex Tris-Glycine, pre-cast, 10-well, 1.5 mm thick gel (Invitrogen). […]
(§3) Films were analyzed for protein expression level by measuring optical density units with a Personal Densitometer™ SI (Molecular Dynamics).

[4] = test system: claudin-2; test: Western blot analysis of tight junctional protein claudin-2 in Caco-2 cells; type: cell-based, human; conditions: 50 or 100 μM zinc, one week, vs control
Description: as §1, §2, §3

Molecule	inactivation of HSV [1]	also measured
CC(=O)[O-].CC(=O)[O-].[Zn+2] [zinc acetate]	directly inactivate	
CC(O)C(=O)[O-].CC(O)C(=O)[O-].[Zn+2] (centres unmarked) [zinc lactate]	directly inactivate	
O=S(=O)([O-])[O-].[Zn+2] [zinc sulfate]	directly inactivate	
[Zn] [zinc]		short circuit current ([2]; 50 or 100 μM zinc, one week): comparable short circuit currents; transepithelial electrical resistance ([2]; one-week zinc supplementation (50 or 100 μM)): significant increase; expression of claudin-7 [3]: reduction, albeit to a lesser extent than claudin-2; expression of claudin-2 [4]: significantly reduced
zinc gluconate	directly inactivate	
